In patent US11534457B2, “Use of dextran sulfate” (priority 2017, dated 2022):

Legend:
[1] = tested on: human Schwann cells; test: PI staining (DNA content, cell cycle, cell numbers, apoptotic fraction), Acumen cytometry; type: cell-based; settings: 0.01 and 0.1 mg/ml
Protocol: The study aims were to evaluate the effect of LMW-DS on cell survival and expression of differentiation proteins in three cell types, cerebral cortical neurons, motor neurons and Schwann cells, using two concentrations 0.01 and 0.1 mg/ml of LMW-DS.
(§1) Neurons were cultured as 40,000 cells per well and Schwann cells 3,000 cells per. Cells were treated after 24 hours. The number of cells per well depended on the growth phenotype, proliferative capacity, etc.
Schwann cells growth medium was prepared by adding 10% of fetal bovine serum (FBS, PAA) to high-glucose DMEM and pre-warmed to 37° C. Cells were thawed in a 37° C. water bath for no longer than 2 min. […] Pellet was resuspended in 5 ml of medium and cells were counted with the Cellometer. […]
(§2) LMW-DS was prepared in the culture media of choice for each cell line and added to the respective wells in the doses 0.01 and 0.1 mg/ml. For cell survival assays cells were analyzed after 24 and 48 hours in eight identical wells/dose/time point. Differentiation and protein expression assay was analyzed after 48 hours, also in octuplicates. […]
(§3) The Acumen cytometer allows the direct cytometric analysis of attached cells without prior detachment. […] The protein content of the cells can also be directly measured and expressed as either ‘total protein content’ or ‘mean protein content’.

[2] = tested on: βIII-tubulin expression in mouse cortical neurons; test: βIII-tubulin immunostaining (differentiation-related protein expression); type: cell-based; settings: 48 h
Protocol: as §1
PNGM was prepared by adding PNGM Singlequots (Lonza) to PNBM medium and pre-warmed to 37° C. Cells were thawed in a 37° C. water bath for no longer than 2 min and gently transferred into a 15 ml tube. 5 ml of medium was gently added drop-wise. Cell suspension was mixed by inverting the tube carefully twice. Cells were counted with a Cellometer AUTO T4 (Nexcelom Bioscience). 40,000 cells per well were seeded in previously coated 96-well plates. Cells were incubated at 37° C. with 5% CO2. […]
as §2, §3

Substance: low molecular weight dextran sulfate [LMW-DS]
- fraction of apoptotic cells [1]: reduced
- number of cells in the G2/M phase (PI content) [1]: appeared to increase the number of cells in the G2/M phase
- βIII-tubulin intensity ([2]; 0.01 and 0.1 mg/ml): significantly increased
- size of βIII-tubulin positive cells vs control culture [2]: larger
